The record followed here is US9795608B2, “Protein kinase inhibitors” (PHARMASCIENCE, INC., priority 2012, dated 2017).

A value given as a limit tells only on which side of the number the result lay.

The term Ki denotes a dissociation constant, usually derived from enzyme kinetics or from competition with a known ligand.

Experiment [1] addresses histidine tagged recombinant human full-length Bruton Agammaglobulinemia Tyrosine Kinase (Btk) (Homo sapiens (Human), UniProt Q06187). Description: Btk Kinase Inhibition Assay (fluorescence polarization, KinEASE FP Fluorescein Green). The format is biochemical. The note with it: 10 μM ATP, 250 μM substrate, 60 minutes room temperature; Ki from IC50 by Cheng-Prusoff. As to the method:
Kinase Binding Btk Kinase Inhibition Assay
Fluorescence polarization-based kinase assays were performed in 384 well-plate format using histidine tagged recombinant human full-length Bruton Agammaglobulinemia Tyrosine Kinase (Btk) and a modified protocol of the KinEASE™ FP Fluorescein Green Assay supplied from Millipore. Kinase reaction were performed at room temperature for 60 minutes in presence of 250 μM substrate, 10 μM ATP and variable test article concentrations. The reaction was stopped with EDTA/kinease detection reagents and the polarization measured on a Tecan 500 instrument. From the dose-response curve obtained, the IC50 was calculated using Graph Pad Prisms® using a non linear fit curve. The Km for ATP on each enzyme was experimentally determined and the Ki values calculated using the Cheng-Prusoff equation (see: Cheng Y, Prusoff W H. (1973) Relationship between the inhibition constant (K1) and the concentration of inhibitor which causes 50 percent inhibition (I50) of an enzymatic reaction”. Biochem Pharmacol 22 (23): 3099-108).

In another experiment the test system is Splenocytes. The experiment can be described thus: Splenic Cell Proliferation Assay (anti-IgM stimulated B cell proliferation, Cell Titer-Glo). The note with it: Splenocyte; CD1 mouse splenocytes, 2.5 ug/ml anti-IgM F(ab')2, 72 h; read-out: EC50 (nM), Inhibition of splenic cell proliferation. The format is cell-based. As to the method:
Splenic Cell Proliferation Assay
Splenocytes were obtained from 6 week old male CD1 mice (Charles River Laboratories Inc.). Mouse spleens were manually disrupted in PBS and filtered using a 70 um cell strainer followed by ammonium chloride red blood cell lysis. Cells were washed, resuspended in Splenocyte Medium (HyClone RPMI supplemented with 10% heat-inactivated FBS, 0.5× non-essential amino acids, 10 mM HEPES, 50 uM beta mercaptoethanol) and incubated at 37° C., 5% CO2 for 2 h to remove adherent cells. Suspension cells were seeded in 96 well plates at 50,000 cells per well and incubated at 37° C., 5% CO2 for 1 h. Splenocytes were pre-treated in triplicate with 10,000 nM curves of Formula 1 compounds for 1 h, followed by stimulation of B cell proliferation with 2.5 ug/ml anti-IgM F(ab′)2 (Jackson ImmunoResearch) for 72 h. Cell proliferation was measured by Cell Titer-Glo Luminescent Assay (Promega). EC50 values (50% proliferation in the presence of compound as compared to vehicle treated controls) were calculated from dose response compound curves using GraphPad Prism Software.
For orientation: In ATP-based viability assays light output follows the ATP content of the culture.

The next experiment concerns Balb/c mice. The experiment can be described thus: Mouse Arthus. The format is in vivo. The note with it: delivered orally at 30 mg/kg, female Balb/c mice. As to the method: Mouse Arthus studies were conducted as reported in Braselmann S, Taylor V, Zhao H, Wang S, Sylvain C, Baluom M, Qu K, Herlaar E, Lau A, Young C, Wong B R, Lovell S, Sun T, Park G, Argade A, Jurcevic S, Pine P, Singh R, Grossbard E B, Payan D G, Masuda E S: R406 an orally available spleen tyrosine kinase inhibitor blocks fc receptor signaling and reduces immune-complex mediated inflammation. J Pharmacol Exp Ther, 2006, 319:998-1008.
In summary, female Balb/c mice (6-7 weeks on arrival) were habituated to the animal facility for at least 4 days. On the day of the experiment, animals were pre-treated (t=minus 1 h) with compound or vehicle alone by gavage (PO). At t=0, animals were injected intravenously (IV; 0.1 mL/mouse) with saline containing chicken ovalbumin and Evan's blue (10 mg/mL of each). Ten minutes later (t=10 min), animals were anesthesized with isoflurane, the dorsal surface was shaved and rabbit anti-chicken ovalbumin antibody was then injected intradermally at one site on the right side of the animal (25 μg in 30 μL). […]
The animals were then returned to their home cage and skin punches (8 mm) were collected from each injection site four hours later. […] The amount of Evan's blue in the formamide solution was then assessed by spectrophotometry (630 nm) as a measure of serum extravasation into the dermis.

Chain of histidine tagged recombinant human full-length Bruton Agammaglobulinemia Tyrosine Kinase (Btk) (Q06187 whole entry): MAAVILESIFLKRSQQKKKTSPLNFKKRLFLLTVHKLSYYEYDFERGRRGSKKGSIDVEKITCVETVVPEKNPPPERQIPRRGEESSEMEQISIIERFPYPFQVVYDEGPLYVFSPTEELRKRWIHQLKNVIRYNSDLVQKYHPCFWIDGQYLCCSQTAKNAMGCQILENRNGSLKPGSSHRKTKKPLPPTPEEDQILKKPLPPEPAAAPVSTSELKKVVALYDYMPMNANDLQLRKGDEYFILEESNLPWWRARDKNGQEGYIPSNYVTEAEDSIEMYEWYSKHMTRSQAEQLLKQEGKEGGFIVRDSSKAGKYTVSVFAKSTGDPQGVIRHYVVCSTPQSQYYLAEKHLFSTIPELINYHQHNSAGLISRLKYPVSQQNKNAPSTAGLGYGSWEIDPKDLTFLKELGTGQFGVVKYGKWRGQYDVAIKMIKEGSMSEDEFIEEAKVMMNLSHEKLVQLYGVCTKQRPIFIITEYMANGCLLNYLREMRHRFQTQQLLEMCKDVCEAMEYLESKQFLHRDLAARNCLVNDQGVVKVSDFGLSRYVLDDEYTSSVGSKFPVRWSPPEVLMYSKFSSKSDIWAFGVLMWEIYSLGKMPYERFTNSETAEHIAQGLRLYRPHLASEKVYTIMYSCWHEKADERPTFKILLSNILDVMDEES

With `Nc1ncnc2c(C3CCCC3)nn(-c3ccc(Oc4cccc(OCc5cncs5)c4)cc3)c12` [Compound 1], the Ki in experiment [1] is less than 100 nM. Besides, in the experiment with Splenocytes, the EC50 is less than 100 nM.
For `Cc1ncc(COc2cccc(Oc3ccc(-n4nc(C5CCCC5)c5ncnc(N)c54)cc3)c2)s1` [Compound 2], the inhibition constant (Ki) in experiment [1] is less than 100 nM. The EC50 with Splenocytes was less than 100 nM.
As for `Cc1ncc(COc2cc(F)cc(Oc3ccc(-n4nc(C5CCOCC5)c5ncnc(N)c54)cc3)c2)s1` [Compound 3], the inhibition constant (Ki) in experiment [1] was less than 100 nM. Further, the EC50 in the experiment on Splenocytes is less than 100 nM.
Consider `Cn1cncc1COc1cc(F)cc(Oc2ccc(-n3nc(C4CCOCC4)c4ncnc(N)c43)cc2)c1` [Compound 4], for which, in experiment [1], the inhibition constant (Ki) is less than 100 nM. Further, the EC50 with Splenocytes is less than 100 nM.
Regarding `Cc1ncc(COc2cc(F)cc(Oc3ccc(-n4nc(C5CCOCC5)c5ncnc(N)c54)cc3)c2)o1` [Compound 5], the inhibitory constant (Ki) in experiment [1] was less than 100 nM. Moreover, in the experiment on Splenocytes, the EC50 was less than 100 nM.
For the compound `Cc1ccc(COc2cc(F)cc(Oc3ccc(-n4nc(C5CCCC5)c5ncnc(N)c54)cc3)c2)cn1` [Compound 6], the Ki in experiment [1] was less than 100 nM. In addition, in the experiment on Splenocytes, the EC50 was less than 100 nM.
Take `Cc1ncc(COc2cc(F)cc(Oc3ccc(-n4nc(C5CCCC5)c5ncnc(N)c54)cc3)c2)s1` [Compound 7]: the Ki in experiment [1] is less than 100 nM. In addition, the EC50 in the experiment with Splenocytes was less than 100 nM.
Consider `Cc1ncc(COc2cc(F)cc(Oc3ccc(-n4nc(C5CCCC5)c5ncnc(N)c54)cc3)c2)cn1` [Compound 8], for which the Ki in experiment [1] was less than 100 nM. The EC50 in the experiment on Splenocytes was less than 100 nM.
With `Cc1ncc(COc2cc(F)cc(Oc3ccc(-n4nc(C(C)C)c5ncnc(N)c54)cc3)c2)s1` [Compound 9], the inhibition constant (Ki) in experiment [1] is less than 100 nM. For the same compound, in the experiment with Splenocytes, the EC50 was less than 100 nM. In the experiment with Balb/c mice, the “efficacy in mouse Arthus (Evan's blue serum extravasation into the dermis)” value is reported as “demonstrated efficacy”.
Regarding `Cc1ncc(COc2cc(F)cc(Oc3ccc(-n4nc(C(C)C)c5ncnc(N)c54)cc3)c2)cn1` [Compound 10], the Ki in experiment [1] was less than 100 nM. The EC50 with Splenocytes is less than 100 nM. Moreover, the “efficacy in mouse Arthus (Evan's blue serum extravasation into the dermis)” value with Balb/c mice was “demonstrated efficacy”.
As for `Cc1ccc(COc2cc(F)cc(Oc3ccc(-n4nc(C(C)C)c5ncnc(N)c54)cc3)c2)cn1` [Compound 11], the inhibition constant Ki in experiment [1] is less than 100 nM. The EC50 in the experiment with Splenocytes was less than 100 nM.
`CC(C)c1nn(-c2ccc(Oc3cc(F)cc(OCc4ccccc4)c3)cc2)c2c(N)ncnc12` [Compound 12]: in experiment [1], the Ki is less than 100 nM. Further, the EC50 in the experiment on Splenocytes was less than 100 nM.
Take `Nc1ncnc2c(C3CCOCC3)nn(-c3ccc(Oc4cc(F)cc(OCc5ccccc5)c4)cc3)c12` [Compound 13]: the Ki in experiment [1] is less than 100 nM. Also, in the experiment with Splenocytes, the EC50 was less than 100 nM.
Turning to `Cc1ccc(COc2cc(F)cc(Oc3ccc(-n4nc(C5CCOCC5)c5ncnc(N)c54)cc3)c2)cn1` [Compound 14], the inhibition constant (Ki) in experiment [1] is less than 100 nM. Further, the EC50 with Splenocytes was less than 100 nM.
As to `Cc1ncc(COc2cc(F)cc(Oc3ccc(-n4nc(C5CCOCC5)c5ncnc(N)c54)cc3)c2)cn1` [Compound 15], in experiment [1], the inhibition constant (Ki) is less than 100 nM.
